Here are results for four molecules from patent US11299458B2, “Crystalline compounds” (OTSUKA AMERICA PHARMACEUTICAL, INC., priority 2015, dated 2022).

Values joined by “and” are separate entries in the source; they are usually repeats but may differ in a detail not shown here. Equal values may be shown once.

In data set [1] the target is serotonin reuptake (5-HT) (Homo sapiens, UniProt P31645). Conditions: unbalanced triple reuptake inhibitor; cited from earlier work.
Data set [2] has as its target norepinephrine reuptake (NE) (Homo sapiens, UniProt P23975). Conditions: unbalanced triple reuptake inhibitor; cited from earlier work.
The target in data set [3] is dopamine reuptake (DA) (Homo sapiens, UniProt Q01959). Particulars: unbalanced triple reuptake inhibitor; cited from earlier work.
Chain of dopamine reuptake (DA) (Q01959 whole entry): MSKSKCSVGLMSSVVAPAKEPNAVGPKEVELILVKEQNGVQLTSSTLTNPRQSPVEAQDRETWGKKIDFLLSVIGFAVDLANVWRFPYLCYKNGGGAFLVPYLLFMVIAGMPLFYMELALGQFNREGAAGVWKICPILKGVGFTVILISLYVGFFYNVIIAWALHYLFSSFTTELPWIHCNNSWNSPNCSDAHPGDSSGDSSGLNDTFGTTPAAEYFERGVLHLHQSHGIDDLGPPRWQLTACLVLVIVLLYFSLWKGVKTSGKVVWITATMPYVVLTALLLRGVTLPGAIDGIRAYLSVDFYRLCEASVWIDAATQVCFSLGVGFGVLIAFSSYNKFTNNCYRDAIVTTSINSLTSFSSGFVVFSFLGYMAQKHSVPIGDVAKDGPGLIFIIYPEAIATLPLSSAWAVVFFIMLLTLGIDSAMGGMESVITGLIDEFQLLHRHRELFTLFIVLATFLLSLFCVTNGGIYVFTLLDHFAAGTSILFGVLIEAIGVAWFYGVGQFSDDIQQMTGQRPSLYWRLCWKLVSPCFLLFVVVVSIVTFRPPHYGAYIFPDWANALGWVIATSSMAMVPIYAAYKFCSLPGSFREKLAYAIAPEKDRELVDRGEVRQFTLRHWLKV
Data set [4] can be described thus: Approximate solubility by solvent aliquot addition. It counts as physicochemical. Particulars: in both methanol and water, room temperature. The procedure: Solution calorimetry (SolCal) analyses are also performed to determine the heats of solution in methanol at 25° C. and confirm the stable form at this temperature (see Example 15).
Experimental: Approximate Solubility
A weighed sample is treated with aliquots of the test solvent at room temperature. The mixture is sonicated between additions to facilitate dissolution. Complete dissolution of the test material is determined by visual inspection. Solubility is estimated based on the total solvent used to provide complete dissolution. The actual solubility may be greater than the value calculated because of the use of solvent aliquots that are too large or due to a slow rate of dissolution.

Data set [5] can be described thus: Accelerated stress conditions (relative humidity stress), solid form by XRPD. In kind it is physicochemical. Particulars: two weeks. The procedure: Relative Humidity Stress: Solids are stored at approximately 40° C./75% RH condition for a measured time period by placing the solids into a vial inside a sealed temperature/humidity chamber at the controlled condition. Samples are analyzed after removal from the stress environment.
Crystalline Forms A, B, and C are exposed to accelerated stress conditions for two weeks (Table 18 below). […] Crystalline Form C is metastable at this condition.
Experimental: Relative Humidity Stress
The following relative humidity jars (saturated salt solutions are used to generate desired relative humidity) are utilized: 75% RH (NaCl) and 56% RH (NaBr) (Nyqvist, H., Int. J. Pharm. Tech. &Prod. Mfr. 1983, 4 (2), 47-48).

Data set [6] is described as follows: Solution calorimetry (SolCal), heats of solution in methanol. It counts as physicochemical. Particulars: 25° C. The procedure:
For each test, two heats of solution are obtained—one calculated using a calibration preceding the sample analysis and one calculated using a calibration following the sample analysis. Clear solutions are observed after each test.
Solution calorimetry is performed using a Thermometric 2225 Precision Solution calorimeter, a semi-adiabatic calorimeter. Solution calorimeter System v.1.2 software is used. Samples are weighed into glass crushing ampoules and are sealed using silicone rubber plugs and hot wax. Experiments are carried out in 100 mL of methanol at 25° C. The measurement of the heats of solution of the samples is both preceded and followed by calibrations using an internal heater. The heats of solution are calculated using dynamic of calibration model.

A short description of data set [7]: Storage stability of solid form, XRPD after storage. In kind it is physicochemical. Particulars: 22 days of ambient storage. Here is the method: Six scale-up attempts are conducted to prepare Crystalline Form C by cooling in isopropanol on approximately 50-150 mg scale (Table 11) and the solids tested by XRPD. At refrigerator temperature, precipitated solids yield Form B. Seeding with Form C after cooling in the refrigerator (no solids observed) and before placing in the freezer yield XRPD pattern of Form C with B peaks. Precipitation at freezer temperature results in solids with an XRPD pattern of Form C with A peaks. A solution placed in the freezer after cooling to room temperature with a lower concentration (7 mg/mL compared to 10 mg/mL) yields Form B. By crash cooling (ambient solution placed into dry ice/isopropanol), solids generated are a mixture of Forms B and A. The last attempt on an approximate 50-mg scale generates a mixture of Forms A and C.
An elliptically graded multilayer mirror is used to focus Cu Kα X-rays through the specimen and onto the detector. Prior to the analysis, a silicon specimen (NIST SRM 640e) is analyzed to verify the observed position of the Si 111 peak is consistent with the NIST-certified position. A specimen of the sample is sandwiched between 3-μm-thick films and analyzed in transmission geometry. A beam-stop, short antiscatter extension, and antiscatter knife edge are used to minimize the background generated by air. Soller slits for the incident and diffracted beams are used to minimize broadening from axial divergence. The diffraction pattern is collected using a scanning position-sensitive detector (X'Celerator) located 240 mm from the specimen and Data Collector software v. 2.2b. Data acquisition parameters are: Panalytical X-Pert Pro MPD PW3040 Pro, X-ray Tube: Cu (1.54059 Å), Voltage: 45 kV, Amperage: 40 mA, Scan Range: 1.00-39.99° 2θ, Step Size: 0.017° 2θ, Collection Time: 719 s, Scan Speed: 3.3°/min., Slit: DS: ½°, SS: null, Revolution Time: 1.0 s, Mode: Transmission.

A short description of data set [8]: Binary interconversion (competitive) slurry experiments between Crystalline Forms A, B and C. Conditions: from interconversion slurries. It counts as physicochemical. The procedure: Interconversion experiments are performed to test the hypothetical thermodynamic relationship between materials illustrated by the Energy—Temperature Diagram above. […] The choice of solvent affects the kinetics of polymorph conversion and not the thermodynamic relationship between polymorphic forms (Gu, C. H., Young, V. Jr., Grant, D. J., J. Pharm. Sci. 2001, 90 (11), 1878-1890).
Binary interconversion slurry experiments between Crystalline Forms A, B, and C in different solvent systems at temperatures spanning approximately 2 through 67° C. are summarized in Table 16 below. Saturated solutions are generated and then added to mixtures composed of approximately equivalent quantities of two of the polymorphs. The samples are slurried from overnight to three weeks and the solids harvested and analyzed by XRPD. The results of the interconversion studies indicate that the relative thermodynamic stability of the enantiotropes Crystalline Forms A, B, and C are correctly depicted by the proposed Energy—Temperature Diagram. In addition, Tt,C→B is expected below 2° C.

Data set [9] can be described thus: Physical stability of mixture of Forms A and B on heat exposure. It counts as physicochemical. Conditions: exposure to 230° C. Here is the method: Tt,B→A is between 37 and 54° C. […] (Table 19 below).

Chain of norepinephrine reuptake (NE) (P23975 whole entry): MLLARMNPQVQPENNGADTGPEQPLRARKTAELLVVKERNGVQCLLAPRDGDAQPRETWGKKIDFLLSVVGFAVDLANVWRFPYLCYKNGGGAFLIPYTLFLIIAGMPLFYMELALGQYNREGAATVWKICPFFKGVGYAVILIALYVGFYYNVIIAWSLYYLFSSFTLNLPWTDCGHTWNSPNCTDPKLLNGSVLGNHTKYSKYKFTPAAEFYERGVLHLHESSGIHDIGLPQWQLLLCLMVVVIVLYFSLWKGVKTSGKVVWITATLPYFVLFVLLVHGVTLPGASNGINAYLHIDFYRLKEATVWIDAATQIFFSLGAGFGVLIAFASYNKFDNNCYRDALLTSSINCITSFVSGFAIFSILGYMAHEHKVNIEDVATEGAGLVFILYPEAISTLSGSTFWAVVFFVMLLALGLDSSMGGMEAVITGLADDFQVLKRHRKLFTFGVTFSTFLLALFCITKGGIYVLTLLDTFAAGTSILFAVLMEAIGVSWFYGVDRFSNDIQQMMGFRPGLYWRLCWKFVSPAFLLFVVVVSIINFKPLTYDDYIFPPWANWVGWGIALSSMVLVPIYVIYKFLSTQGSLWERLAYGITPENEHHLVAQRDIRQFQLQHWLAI
Chain of serotonin reuptake (5-HT) (P31645 whole entry): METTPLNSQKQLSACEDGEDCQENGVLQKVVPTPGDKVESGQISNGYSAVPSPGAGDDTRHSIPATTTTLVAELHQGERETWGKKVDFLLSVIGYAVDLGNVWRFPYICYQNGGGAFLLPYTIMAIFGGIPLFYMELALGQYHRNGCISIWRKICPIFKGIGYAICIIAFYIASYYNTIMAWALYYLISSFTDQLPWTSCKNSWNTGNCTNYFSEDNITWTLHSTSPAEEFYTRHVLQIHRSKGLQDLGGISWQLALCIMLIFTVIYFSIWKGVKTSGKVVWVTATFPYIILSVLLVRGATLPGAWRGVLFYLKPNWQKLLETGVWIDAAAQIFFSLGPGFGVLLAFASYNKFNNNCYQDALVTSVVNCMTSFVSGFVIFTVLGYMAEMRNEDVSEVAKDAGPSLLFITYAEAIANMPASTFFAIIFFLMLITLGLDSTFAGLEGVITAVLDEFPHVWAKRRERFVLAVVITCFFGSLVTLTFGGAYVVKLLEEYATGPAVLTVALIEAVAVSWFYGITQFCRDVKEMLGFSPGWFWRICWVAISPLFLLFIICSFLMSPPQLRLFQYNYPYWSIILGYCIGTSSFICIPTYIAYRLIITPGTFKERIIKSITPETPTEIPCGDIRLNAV

For `c1ccc2cc([C@]34CNC[C@H]3C4)ccc2c1` [(1R,5S)-1-(naphthalen-2-yl)-3-azabicyclo[3.1.0]hexane], the “potency towards serotonin reuptake (5-HT) relative to norepinephrine reuptake” value in data set [1] was “one-fourteenth as much”. Besides, in data set [2], the “potency towards norepinephrine reuptake (NE) among the three reuptakes” value was “most potent”. Also, the “potency towards dopamine reuptake (DA) relative to norepinephrine reuptake” value in data set [3] was “one-sixth as potent”.
For the molecule `Cl.c1ccc2cc([C@]34CNC[C@H]3C4)ccc2c1` [Crystalline Form B, (1R,5S)-1-(naphthalen-2-yl)-3-azabicyclo[3.1.0]hexane hydrochloride], the “apparent solubility compared with Crystalline Form A” value in data set [4] is reported as “lower apparent solubility”. Moreover, the “solid form by XRPD after accelerated stress” value in data set [5] (30° C./56% RH) is given as “remain unchanged”; in data set [5] (40° C./75% RH, hydrochloride), “remain unchanged”. In addition, the “relative thermodynamic stability versus Crystalline Form A from heats of solution” value in data set [6] is given as “more stable”. Moreover, the “enthalpy of the transition from Form B to Form A calculated from the SolCal data” value in data set [6] (methanol) is given as “about 15.9 J/g”. Besides, the “average heat of solution” value came out at 64.567 J/g in data set [6] (methanol, triplicate, endothermic, hydrochloride) and 64.567 J/g in data set [6] (methanol, average of three replicates, hydrochloride). Moreover, in data set [6] (methanol, calculated using the calibration after breaking the sample vial, single replicates, hydrochloride), the “ΔH2 (heat of solution)” value was 64.985 J/g and 65.057 J/g and 65.421 J/g. In addition, in data set [6] (methanol, calculated using the calibration before breaking the sample vial, single replicates, hydrochloride), the “ΔH1 (heat of solution)” value is 64.004 J/g and 63.471 J/g and 64.461 J/g. Besides, the “ΔHmean (heat of solution)” value in [6] (methanol, mean of the two calibrations, single replicates, hydrochloride) was 64.495 J/g and 64.264 J/g and 64.941 J/g.
`Cl.c1ccc2cc([C@]34CNC[C@H]3C4)ccc2c1` [Crystalline Form C, (1R,5S)-1-(naphthalen-2-yl)-3-azabicyclo[3.1.0]hexane hydrochloride]: the “solid form by XRPD after ambient storage” value in [7] was “remains unchanged”. In addition, in data set [5] (40° C./75% RH, hydrochloride), the “solid form by XRPD after accelerated stress” value was “converts to a mixture of Crystalline Forms A and B”. Moreover, the “transition temperature Tt,C→A” value in data set [8] was “between 2 °C and ambient temperature”.
Consider `Cl.c1ccc2cc([C@]34CNC[C@H]3C4)ccc2c1` [mixture of Forms A and B, (1R,5S)-1-(naphthalen-2-yl)-3-azabicyclo[3.1.0]hexane hydrochloride], for which the “solid form after heat exposure” value in data set [9] is “completely converts to Form A”.
